What was measured:
[1] = 298.15 K; 101.3 kPa; Liquid; Vibrating tube method
[2] = refractive index (Na D-line) (dimensionless); settings: 298.15 K; 101.3 kPa; Liquid; Standard Abbe refractometry
[3] = relative permittivity at various frequencies (dimensionless); settings: 298.15 K; 101.3 kPa; Liquid; Frequency=0.01 MHz; Coaxial cylinder capacitor
[4] = refractive index (Na D-line) (dimensionless); xn = mol fraction of the nth substance listed; settings: 298.15 K, 101.3 kPa, Liquid, Standard Abbe refractometry
[5] = relative permittivity at various frequencies (dimensionless); xn = mol fraction of the nth substance listed; settings: 298.15 K, 101.3 kPa, Liquid, Frequency=0.01 MHz, Coaxial cylinder capacitor
[6] = xn = mol fraction of the nth substance listed; settings: 298.15 K, 101.3 kPa, Liquid, Vibrating tube method

CCCCO [butan-1-ol]
Settings	mass density [kg/m3]	refractive index	relative permittivity
[1]	805.92	–	–
[2]	–	1.3971	–
[3]	–	–	17.49

CCCCO [butan-1-ol] + O=C1CCCC1
x2 = 0
Settings	mass density [kg/m3]	refractive index	relative permittivity
[4]	–	1.3971	–
[5]	–	–	17.49
[6]	805.92	–	–

C1CCCCC1 [cyclohexane]
Settings	mass density [kg/m3]	refractive index	relative permittivity
[1]	773.89	–	–
[2]	–	1.4235	–
[3]	–	–	2.02

C1CCCCC1 [cyclohexane] + O=C1CCCC1
x2 = 0
Settings	refractive index	relative permittivity
[4]	1.4235	–
[5]	–	2.02

O=C1CCCC1 [cyclopentanone]
Settings	mass density [kg/m3]	refractive index	relative permittivity
[1]	944.31	–	–
[2]	–	1.4347	–
[3]	–	–	13.52

O=C1CCCC1 [cyclopentanone] + C1CCCCC1
Settings	refractive index, [4]	relative permittivity, [5]
x1 = 0.03	1.4235	2.25
x1 = 0.05	1.4235	2.39
x1 = 0.1	1.4236	2.78
x1 = 0.15	1.4237	3.19
x1 = 0.2	1.4239	3.61
x1 = 0.3	1.4244	4.51
x1 = 0.4	1.4252	5.51
x1 = 0.5	1.4262	6.6
x1 = 0.6	1.4274	7.78
x1 = 0.7	1.4289	9.06
x1 = 0.8	1.4306	10.45
x1 = 0.9	1.4325	11.94
x1 = 1	1.4347	13.52

O=C1CCCC1 [cyclopentanone] + CCCCCCCCCCO
Settings	mass density, [6] [kg/m3]	refractive index, [4]	relative permittivity, [5]
x1 = 0.1	829.38	1.4345	7.75
x1 = 0.2	833.22	1.4339	7.84
x1 = 0.3	839.24	1.4335	8.07
x1 = 0.4	847.47	1.4333	8.43
x1 = 0.5	857.91	1.4332	8.93
x1 = 0.6	870.34	1.4332	9.56
x1 = 0.7	884.81	1.4333	10.34
x1 = 0.8	901.52	1.4336	11.27
x1 = 0.9	921.01	1.4341	12.31
x1 = 1	944.31	1.4347	13.52

O=C1CCCC1 [cyclopentanone] + CCCCCCCCO
Settings	mass density, [6] [kg/m3]	refractive index, [4]	relative permittivity, [5]
x1 = 0.1	827.28	1.4276	9.63
x1 = 0.2	833.41	1.4278	9.51
x1 = 0.3	841.25	1.4282	9.5
x1 = 0.4	850.89	1.4287	9.65
x1 = 0.5	862.2	1.4294	9.94
x1 = 0.6	874.88	1.4302	10.37
x1 = 0.7	889.18	1.4311	10.97
x1 = 0.8	905.27	1.4321	11.69
x1 = 0.9	923.62	1.4333	12.55
x1 = 1	944.31	1.4347	13.52

O=C1CCCC1 [cyclopentanone] + CCCCCCO
Settings	mass density, [6] [kg/m3]	refractive index, [4]	relative permittivity, [5]
x1 = 0.1	823.87	1.4175	12.44
x1 = 0.2	832.61	1.4189	12
x1 = 0.3	842.44	1.4204	11.68
x1 = 0.4	853.65	1.4221	11.51
x1 = 0.5	866.02	1.4239	11.48
x1 = 0.6	879.48	1.4258	11.59
x1 = 0.7	894.17	1.4279	11.87
x1 = 0.8	909.92	1.4301	12.27
x1 = 0.9	926.64	1.4324	12.83
x1 = 1	944.31	1.4347	13.52

O=C1CCCC1 [cyclopentanone] + CCCCO
Settings	mass density, [6] [kg/m3]	refractive index, [4]	relative permittivity, [5]
x1 = 0.1	820.75	1.4015	16.31
x1 = 0.2	835.31	1.4057	15.37
x1 = 0.3	849.88	1.4098	14.58
x1 = 0.4	864.47	1.4137	13.97
x1 = 0.5	878.88	1.4175	13.5
x1 = 0.6	893.05	1.4212	13.18
x1 = 0.7	906.81	1.4248	13.03
x1 = 0.8	920.01	1.4282	13.04
x1 = 0.9	932.67	1.4315	13.19
x1 = 1	944.31	1.4347	13.52

O=C1CCCC1 [cyclopentanone] + CCO
Settings	mass density, [6] [kg/m3]	refractive index, [4]	relative permittivity, [5]
x1 = 0.1	811.02	1.3696	22.42
x1 = 0.2	833.48	1.3793	20.69
x1 = 0.3	853.69	1.3884	19.16
x1 = 0.4	871.79	1.3968	17.78
x1 = 0.5	888.17	1.4046	16.6
x1 = 0.6	902.91	1.4117	15.59
x1 = 0.7	915.99	1.4182	14.77
x1 = 0.8	927.18	1.4242	14.16
x1 = 0.9	936.58	1.4296	13.75
x1 = 1	944.31	1.4347	13.52

CCCCCCCCCCO [decan-1-ol]
Settings	mass density [kg/m3]	refractive index	relative permittivity
[1]	826.71	–	–
[2]	–	1.4352	–
[3]	–	–	7.74

CCCCCCCCCCO [decan-1-ol] + O=C1CCCC1
x2 = 0
Settings	mass density [kg/m3]	refractive index	relative permittivity
[4]	–	1.4352	–
[5]	–	–	7.74
[6]	826.71	–	–

CCO [ethanol]
Settings	mass density [kg/m3]	refractive index	relative permittivity
[1]	785.26	–	–
[2]	–	1.3594	–
[3]	–	–	24.37

CCO [ethanol] + O=C1CCCC1
x2 = 0
Settings	mass density [kg/m3]	refractive index	relative permittivity
[4]	–	1.3594	–
[5]	–	–	24.37
[6]	785.26	–	–

CCCCCCO [hexan-1-ol]
Settings	mass density [kg/m3]	refractive index	relative permittivity
[1]	815.99	–	–
[2]	–	1.4161	–
[3]	–	–	13.09

CCCCCCO [hexan-1-ol] + O=C1CCCC1
x2 = 0
Settings	mass density [kg/m3]	refractive index	relative permittivity
[4]	–	1.4161	–
[5]	–	–	13.09
[6]	815.99	–	–

CCCCCCCCO [octan-1-ol]
Settings	mass density [kg/m3]	refractive index	relative permittivity
[1]	821.98	–	–
[2]	–	1.4276	–
[3]	–	–	9.85

CCCCCCCCO [octan-1-ol] + O=C1CCCC1
x2 = 0
Settings	mass density [kg/m3]	refractive index	relative permittivity
[4]	–	1.4276	–
[5]	–	–	9.85
[6]	821.98	–	–

Reference: the NIST ThermoML archive (doi:10.1021/acs.jced.8b00217)
